Test results as given in US12544371B2, “Methods and compositions for treating acute lung injury and acute respiratory distress syndrome” (CalciMedica, Inc., priority 2020, dated 2026).
Read-outs that look alike come from different tables or passages of the source.

Legend:
[1] = Phase 2 trial in severe COVID-19 pneumonia, interim results; format: in vivo, human; conditions: for Difference (Compound 1 − Standard Care), estimated mean of ordinal scale: MMRM; for Difference (Compound 1 − Standard Care), ordinal scale, sensitivity analysis: three patients with PaO2/FiO2<100 removed
Method: A phase 2 clinical trial is performed to evaluate Compound 1 in patients with severe COVID-19 pneumonia. The study will investigate the use of Compound 1 in patients with severe COVID-19 pneumonia who are at risk for progression to acute respiratory distress syndrome (ARDS).
Compound 1 Dose and Route of Administration: 2.0 mg/kg of an injectable emulsion of Compound 1 will be administered at 0 hour and 1.6 mg/kg will be administered at both 24 hours and 48 hours from the Start of the First Infusion of Study Drug (SFISD).
Study Design: In this randomized controlled open-label stage study, 60 patients who meet all of the inclusion criteria and none of the exclusion criteria will be randomized 2:1 to receive Compound 1 or continue with the local standard of care. The dose of Compound 1 will be 2.0 mg/kg of Compound 1 administered at 0 hour, and 1.6 mg/kg at 24 hours and 1.6 mg/kg at 48 hours. The SFISD should occur within 8 hours of the patient or LAR providing informed consent. The dosing will be based on actual body weight obtained at the time of hospitalization or screening for the study. A study physician or appropriately trained delegate will perform assessments at screening, immediately prior to the SFISD, and immediately prior to each subsequent infusion. At 72 hours after the SFISD, the patient will be assessed every 24 hours (±4 hours) until Day 30 after the SFISD, or until discharge if earlier. Patients who are discharged before Day 25 after the SFISD will be contacted at Day 30 (±5 days) and Day 60 (+5 days) for a safety and mortality assessment. Patients randomized to receive local standard of care will not have blood samples drawn for PK assessments.
Interim results for the phase 2 trial have been obtained, as follows. 18 patients with severe COVID-19 pneumonia have been enrolled, in which 12 treated have been treated with an injectable emulsion of Compound 1, and 6 have received the standard of care. 3 sites are currently enrolling patients. 11 of the enrolled patients are at site 1 (8 treated and 3 SOC), 3 are at site 2 (1 treated and 2 SOC), and 4 are at site 3 (3 treated and 1 SOC). The subjects with severe COVID-19 were those that necessitated low-flow oxygen treatment.
Compound 1 in Severe COVID-19 Pneumonia: Time to Hospital Discharge. One subject in standard care group was discharged with low flow treatment and is considered as censored at discharge instead of out of hospital. 3 patients who died were censored at Day 30. […] Similar improvements would be expected upon treatment with other intracellular Calcium signaling inhibitors or CRAC inhibitors.
Compound 1 in Severe COVID-19 Pneumonia: Ordinal Scale Analysis. The data in are based on an MMRM model and missing at random assumption. The ordinal scale was as follows: 1. Death 2. Hospitalized, on invasive mechanical ventilation or ECMO 3. Hospitalized, on non-invasive ventilation or high flow oxygen devices 4. Hospitalized, requiring low flow supplemental oxygen 5. Hospitalized, not requiring supplemental oxygen—requiring ongoing medical care (coronavirus (e.g. COVID-19) related or otherwise) 6. Hospitalized, not requiring supplemental oxygen—no longer requires ongoing medical care (other than per protocol study drug administration) 7. Not hospitalized. […] Similar improvements would be expected upon treatment with other intracellular Calcium signaling inhibitors or CRAC inhibitors.

[2] = system: IL-1β released from human PBMCs; assay: Cytokine released from human PBMCs: IL-1β; format: cell-based
Source text: CRAC channels may play a proximal role in a calcium-calcineurin pathway leading to cytokine release in immune cells.

[3] = PD/PK study in patients with acute pancreatitis (Compound 1 Test 202); format: in vivo, human
Method: In Compound 1 Test 202, a pharmacodynamic and pharmacokinetic study of Compound 1 in patients with acute pancreatitis, patients with AP (regardless of the presence of SIRS and/or hypoxemia) were administered a single IV infusion of 2.08 mg/kg of an injectable emulsion of Compound 1 and blood, plasma and serum were collected for analysis. It was planned to initially enroll 5 patients and then to enroll an additional 4 patients as needed. Ultimately, 7 patients were screened for the study, and all 7 enrolled in and completed the study. On Days 1 and 2, blood and plasma samples for PD and PK analyses, respectively, were obtained 30 minutes after completing the administration of Compound 1 and 24 hours from the start of the administration of Compound 1. In patients hospitalized at Day 5 and 10, blood and plasma samples were obtained; if discharged earlier, samples were obtained at the time of discharge. After discharge, patients returned to the hospital on Day 30 to provide final blood and plasma samples.

[4] = cited from earlier work

Compound: Cc1cccc(F)c1C(=O)Nc1cnc(-c2cc3c(cc2Cl)OC(F)(F)O3)cn1 [Compound 1, N-(5-(6-Chloro-2,2-difluorobenzo[d][1,3]dioxol-5-yl)pyrazin-2-yl)-2-fluoro-6-methylbenzamide]
- Difference (Compound 1 − Standard Care), estimated mean of ordinal scale ([1]; Study Day 0): 0.00
- Difference (Compound 1 − Standard Care), ordinal scale, sensitivity analysis ([1]; Study Day 0): 0.00
- Difference (Compound 1 − Standard Care), estimated mean of ordinal scale ([1]; Study Day 1): 0.75
- Difference (Compound 1 − Standard Care), ordinal scale, sensitivity analysis ([1]; Study Day 1): 0.70
- Difference (Compound 1 − Standard Care), estimated mean of ordinal scale ([1]; Study Day 2): 0.83
- Difference (Compound 1 − Standard Care), ordinal scale, sensitivity analysis ([1]; Study Day 2): 0.80
- Difference (Compound 1 − Standard Care), estimated mean of ordinal scale ([1]; Study Day 3): 1.17
- Difference (Compound 1 − Standard Care), ordinal scale, sensitivity analysis ([1]; Study Day 3): 1.10
- Difference (Compound 1 − Standard Care), estimated mean of ordinal scale ([1]; Study Day 4): 1.73
- Difference (Compound 1 − Standard Care), ordinal scale, sensitivity analysis ([1]; Study Day 4): 1.76
- Difference (Compound 1 − Standard Care), estimated mean of ordinal scale ([1]; Study Day 5): 1.87
- Difference (Compound 1 − Standard Care), ordinal scale, sensitivity analysis ([1]; Study Day 5): 2.02
- Difference (Compound 1 − Standard Care), estimated mean of ordinal scale ([1]; Study Day 6): 2.04
- Difference (Compound 1 − Standard Care), ordinal scale, sensitivity analysis ([1]; Study Day 6): 2.23
- Difference (Compound 1 − Standard Care), estimated mean of ordinal scale ([1]; Study Day 7): 1.30
- Difference (Compound 1 − Standard Care), ordinal scale, sensitivity analysis ([1]; Study Day 7): 1.79
- Difference (Compound 1 − Standard Care), estimated mean of ordinal scale ([1]; Study Day 8): 1.39
- Difference (Compound 1 − Standard Care), ordinal scale, sensitivity analysis ([1]; Study Day 8): 1.89
- Difference (Compound 1 − Standard Care), estimated mean of ordinal scale ([1]; Study Day 9): 1.48
- Difference (Compound 1 − Standard Care), ordinal scale, sensitivity analysis ([1]; Study Day 9): 1.90
- Difference (Compound 1 − Standard Care), estimated mean of ordinal scale ([1]; Study Day 10): 1.21
- Difference (Compound 1 − Standard Care), ordinal scale, sensitivity analysis ([1]; Study Day 10): 1.81
- Difference (Compound 1 − Standard Care), estimated mean of ordinal scale ([1]; Study Day 12): 1.31
- Difference (Compound 1 − Standard Care), ordinal scale, sensitivity analysis ([1]; Study Day 12): 1.81
- Difference (Compound 1 − Standard Care), estimated mean of ordinal scale ([1]; Study Day 14): 1.05
- Difference (Compound 1 − Standard Care), ordinal scale, sensitivity analysis ([1]; Study Day 14): 2.07
- Difference (Compound 1 − Standard Care), ordinal scale, sensitivity analysis ([1]; Study Day 16): 1.82
- Difference (Compound 1 − Standard Care), ordinal scale, sensitivity analysis ([1]; Study Day 18): 1.83
- ordinal scale (7-point) ([1]; interim): improvement
- Subjects out of hospital ([1]; interim, 9/12 subjects): 9/12 (75%)
- PaO2/FiO2 ([1]; interim, following administration): increased
- probability of being at a hospital over time ([1]; interim, versus standard care): lower probability of being at a hospital over time
- KM estimate of number of days in hospital, median ([1]; interim, 95% CI (4 days, na)): 5.5 days (4 days, na)
- IC50 ([2]; Homo sapiens, PBMC, mean of replicates, read-out: Mean IC50, IL-1β released from human PBMCs): 240 nM
- IC50 ([2]; Homo sapiens, PBMC, single replicates, read-out: Replicate IC50 values, IL-1β released from human PBMCs): 264 nM
- IC50 ([2]; single replicates, read-out: Replicate IC50 values, IL-1β released from human PBMCs): 217 nM
- patients with moderate TEAEs ([3]; 1 of 7 patients): 14%
- patients with severe TEAEs ([3]; 2 of 7 patients, also SAEs, not considered drug related): 29%
- number of TEAEs ([3]; 7 patients, single 2.08 mg/kg): 7 TEAEs
- patients who experienced TEAEs ([3]; 7 patients, single IV infusion of 2.08 mg/kg): 3 patients
- Discharge IL-6 levels, patients with IL-6 ≥ 1000 pg/mL ([3]; PK/PD Single Dose, admission 0): 0
- Discharge IL-6 levels, patients with 150 pg/mL ≤ IL-6 < 1000 pg/mL ([3]; PK/PD Single Dose, admission 1): 0
- TEAEs with causality Unlikely ([3]; of the 7 TEAEs): 2 TEAEs
- TEAEs with causality Unrelated ([3]; of the 7 TEAEs): 5 TEAEs
- mild TEAEs ([3]; of the 7 TEAEs): 3 TEAEs
- moderate TEAEs ([3]; of the 7 TEAEs): 2 TEAEs
- severe TEAEs (also SAEs) ([3]; of the 7 TEAEs): 2 TEAEs
- cytokine levels in serum and lung ([4]; animal models): decreases
- lung inflammation in animal models ([4]; animal models): protect against lung inflammation
- efficacy following i.p. injection ([4]; mice, Wen et al. 2015): effective
- efficacy following 4-hour i.v. infusion ([4]; rats, Waldron et al. 2019): effective
